In the supplement of paper PMC10307832:

Experiments:
Experiment in all cases: relative viability (nuclei count vs DMSO), 5 days (fraction); higher = more cells survive
[1] = tested on: PC-3 [JPC-3]
Outline: (§1)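 Five library-drug doses in √10 steps were combined with a fixed anchor-drug dose, or a single drug was given alone, by pin tool to lung cancer cell lines in 1536-well plates the day after seeding. Nuclei were stained and counted after 5 days. Relative viability is the nuclei count in treated wells over that in vehicle wells, taken as the median of duplicate plates.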

[2] = tested on: SW 900
Outline: as §1

[3] = tested on: H3255
Outline: as §1

[4] = tested on: NCI-H1666
Outline: as §1

[5] = tested on: LK-2
Outline: as §1

[6] = tested on: NCI-H23
Outline: as §1

[7] = tested on: SK-MES-1
Outline: as §1

[8] = tested on: HCC-366
Outline: as §1

[9] = tested on: NCI-H596
Outline: as §1

[10] = tested on: COR-L 105
Outline: as §1

[11] = tested on: NCI-H1755
Outline: as §1

[12] = tested on: A-427
Outline: as §1

[13] = tested on: LOU-NH91
Outline: as §1

[14] = tested on: NCI-H2170
Outline: as §1

[15] = tested on: NCI-H1975
Outline: as §1

[16] = tested on: ChaGo-K-1
Outline: as §1

[17] = tested on: EKVX
Outline: as §1

[18] = tested on: NCI-H441
Outline: as §1

[19] = tested on: NCI-H520
Outline: as §1

[20] = tested on: NCI-H1734
Outline: as §1

[21] = tested on: EMC-BAC-2
Outline: as §1

## O=c1cc(N2CCOCC2)oc2c(-c3cccc4c3sc3ccccc34)cccc12 + Nc1ncn([C@H]2C[C@H](O)[C@@H](CO)O2)c(=O)n1 [Decitabine] (partner 2 µM)
[1]; first compound 0.01 µM
  relative viability: 0.809
[1]; first compound 0.03162 µM
  relative viability: 0.859
[1]; first compound 0.1 µM
  relative viability: 0.874
[1]; first compound 0.3162 µM
  relative viability: 0.814
[1]; first compound 1 µM
  relative viability: 0.811
[2]; first compound 0.03162 µM
  relative viability: 0.435
[2]; first compound 0.1 µM
  relative viability: 0.471
[2]; first compound 0.3162 µM
  relative viability: 0.459
[2]; first compound 1 µM
  relative viability: 0.456
[3]; first compound 0.01 µM
  relative viability: 0.598
[3]; first compound 0.03162 µM
  relative viability: 0.715
[3]; first compound 0.1 µM
  relative viability: 0.56
[3]; first compound 0.3162 µM
  relative viability: 0.604
[3]; first compound 1 µM
  relative viability: 0.533
[4]; first compound 0.01 µM
  relative viability: 0.71
[4]; first compound 0.03162 µM
  relative viability: 0.762
[4]; first compound 0.1 µM
  relative viability: 0.713
[4]; first compound 0.3162 µM
  relative viability: 0.736
[4]; first compound 1 µM
  relative viability: 0.677
[5]; first compound 0.01 µM
  relative viability: 0.355
[5]; first compound 0.03162 µM
  relative viability: 0.324
[5]; first compound 0.1 µM
  relative viability: 0.338
[5]; first compound 0.3162 µM
  relative viability: 0.278
[5]; first compound 1 µM
  relative viability: 0.285
[6]; first compound 0.01 µM
  relative viability: 0.288
[6]; first compound 0.03162 µM
  relative viability: 0.322
[6]; first compound 0.3162 µM
  relative viability: 0.326
[6]; first compound 1 µM
  relative viability: 0.307
[7]; first compound 0.01 µM
  relative viability: 0.419
[7]; first compound 0.03162 µM
  relative viability: 0.43
[7]; first compound 0.1 µM
  relative viability: 0.366
[7]; first compound 0.3162 µM
  relative viability: 0.351
[7]; first compound 1 µM
  relative viability: 0.365
[8]; first compound 0.01 µM
  relative viability: 0.331
[8]; first compound 0.03162 µM
  relative viability: 0.365
[8]; first compound 0.1 µM
  relative viability: 0.413
[8]; first compound 0.3162 µM
  relative viability: 0.348
[8]; first compound 1 µM
  relative viability: 0.296
[9]; first compound 0.01 µM
  relative viability: 0.974
[9]; first compound 0.03162 µM
  relative viability: 1.07
[9]; first compound 0.1 µM
  relative viability: 1.09
[9]; first compound 0.3162 µM
  relative viability: 1.03
[9]; first compound 1 µM
  relative viability: 1.05
[10]; first compound 0.01 µM
  relative viability: 0.622
[10]; first compound 0.03162 µM
  relative viability: 0.7
[10]; first compound 0.1 µM
  relative viability: 0.746
[10]; first compound 0.3162 µM
  relative viability: 0.769
[10]; first compound 1 µM
  relative viability: 0.667
[11]; first compound 0.01 µM
  relative viability: 0.755
[11]; first compound 0.03162 µM
  relative viability: 0.74
[11]; first compound 0.1 µM
  relative viability: 0.711
[11]; first compound 0.3162 µM
  relative viability: 0.696
[11]; first compound 1 µM
  relative viability: 0.719
[12]; first compound 0.01 µM
  relative viability: 0.606
[12]; first compound 0.03162 µM
  relative viability: 0.552
[12]; first compound 0.1 µM
  relative viability: 0.58
[12]; first compound 0.3162 µM
  relative viability: 0.591
[12]; first compound 1 µM
  relative viability: 0.592
[13]; first compound 0.01 µM
  relative viability: 0.774
[13]; first compound 0.03162 µM
  relative viability: 0.794
[13]; first compound 0.1 µM
  relative viability: 0.83
[13]; first compound 0.3162 µM
  relative viability: 0.827
[13]; first compound 1 µM
  relative viability: 0.784
[14]; first compound 0.01 µM
  relative viability: 0.472
[14]; first compound 0.03162 µM
  relative viability: 0.447
[14]; first compound 0.1 µM
  relative viability: 0.475
[14]; first compound 0.3162 µM
  relative viability: 0.457
[14]; first compound 1 µM
  relative viability: 0.461
[15]; first compound 0.01 µM
  relative viability: 0.438
[15]; first compound 0.03162 µM
  relative viability: 0.4
[15]; first compound 0.1 µM
  relative viability: 0.394
[15]; first compound 0.3162 µM
  relative viability: 0.371
[15]; first compound 1 µM
  relative viability: 0.353
[16]; first compound 0.01 µM
  relative viability: 0.524
[16]; first compound 0.03162 µM
  relative viability: 0.539
[16]; first compound 0.1 µM
  relative viability: 0.532
[16]; first compound 0.3162 µM
  relative viability: 0.57
[16]; first compound 1 µM
  relative viability: 0.546
[17]; first compound 0.01 µM
  relative viability: 0.355
[17]; first compound 0.03162 µM
  relative viability: 0.321
[17]; first compound 0.1 µM
  relative viability: 0.37
[17]; first compound 0.3162 µM
  relative viability: 0.282
[17]; first compound 1 µM
  relative viability: 0.336
[18]; first compound 0.01 µM
  relative viability: 0.279
[18]; first compound 0.03162 µM
  relative viability: 0.255
[18]; first compound 0.1 µM
  relative viability: 0.26
[18]; first compound 0.3162 µM
  relative viability: 0.208
[18]; first compound 1 µM
  relative viability: 0.228
[19]; first compound 0.01 µM
  relative viability: 0.59
[19]; first compound 0.03162 µM
  relative viability: 0.565
[19]; first compound 0.1 µM
  relative viability: 0.529
[19]; first compound 0.3162 µM
  relative viability: 0.557
[19]; first compound 1 µM
  relative viability: 0.525
[20]; first compound 0.01 µM
  relative viability: 0.584
[20]; first compound 0.03162 µM
  relative viability: 0.508
[20]; first compound 0.1 µM
  relative viability: 0.536
[20]; first compound 0.3162 µM
  relative viability: 0.498
[20]; first compound 1 µM
  relative viability: 0.517
[21]; first compound 0.01 µM
  relative viability: 1.05
[21]; first compound 0.03162 µM
  relative viability: 1.02
[21]; first compound 0.1 µM
  relative viability: 1.01
[21]; first compound 0.3162 µM
  relative viability: 0.93
[21]; first compound 1 µM
  relative viability: 0.95
